Experimental data from patent publication US5316771A, “Method of amphiphatic drug loading in liposomes by ammonium ion gradient” (priority 1992, dated 1994).
Like-named read-outs stand apart in the source and are kept apart here.

Columns and labels:
[1] = Source text: For this, ammonium carbonate (0.12M) was placed in a beaker. The ultrasound probe was attached to the beaker.
[2] = Loading of daunorubicin into ammonium sulfate liposomes
[3] = cited from earlier work
[4] = Quenching of acridine orange fluorescence on incorporation into liposomes; format: physicochemical; details: liposomes with external ammonium sulfate removed
Method: In order to further substantiate the existence of the ammonium gradient, the same experiment as described above was repeated with the other compounds such as acridine orange, a cytotoxic drug acridine orange is an amphiphatic weak base (pK=9.25), which has the advantage of being fluorescent. Instead of trapping pyranine inside the ammonium sulfate liposomes, liposomes were added to a solution containing acridine orange. The quenching of the resulting solution was monitored following partitioning into the aqueous phase of the liposome, using the experimental designs described in Example 5 and illustrated in FIG. 2.
Inset graph is an example of one of the experiments. Percentage of fluorescence intensity (F.I.) of acridine orange was monitored continuously and is shown here as (a). At the specified time (b) liposomes were added and the quenching was followed. At steady state, 5 um of nigericin was added, shown here as (c) and the extent of the release of quenching was used to calculate the ammonium sulfate gradient dependent fluorescence intensity. The details of the experiment are described in Example 5.
1 umol of acridine orange was added to a solution containing different proportions of potassium chloride and ammonium sulfate. The solution was designed to get different outside-inside gradients of ammonium sulfate when the liposomes are added. […] The recovery of fluorescence was monitored. […]

[5] = around 24 hours; cited from earlier work
[6] = Self-quenching of doxorubicin fluorescence; format: physicochemical
Method: The measurements were carried on a Perkin-Elmer MPF-44 spectrofluorometer, using excitation/emission wavelengths of 470 nm and 590 nm respectively. […] This was calculated from the difference between the fluorescence of the liposomes prepared according to Examples 1-4, and the fluorescence of the same mixture after diluting it 10 times with isopropanol containing 10% of 0.75% HCI. […] A correction for the difference in fluorescence of doxorubicin in water and the acidified isopropanol solution, deduced from measurements of the fluorescence of "free" drug in the two solutions, was introduced. The small amount of unquenched doxorubicin is probably due to some free-drug that leaked out of the vesicles.

[7] = Loading of doxorubicin into ammonium sulfate liposomes (NH4+ gradient), Dowex removal of free drug; format: physicochemical; details: biphasic, FIG. 3
[8] = Biochemistry, 21:3927-3932; cited from earlier work
[9] = sodium/potassium gradient with valinomycin; cited from earlier work

## N.N.O=C(O)O [ammonium carbonate]
[1]; HCl added to pH 4.0
  Ultrasound signal: large signal
[1]; before acidification, 0.12M
  Ultrasound signal: No signal was observed

## COc1cccc2c1C(=O)c1c(O)c3c(c(O)c1C2=O)C[C@@](O)(C(C)=O)C[C@@H]3O[C@H]1C[C@H](N)[C@H](O)[C@H](C)O1 [Daunorubicin]
[2]
  Rate of incorporation compared with doxorubicin: higher than that of doxorubicin
  Time to completion of incorporation: less than one hour

## CN(C)c1ccc2cc3ccc(N(C)C)cc3nc2c1 [Acridine orange]
[3]
  pK: 9.25
[4]
  Quenching of acridine orange fluorescence: 96.5%

## COc1cccc2c1C(=O)c1c(O)c3c(c(O)c1C2=O)C[C@@](O)(C(=O)CO)C[C@@H]3O[C@H]1C[C@H](N)[C@H](O)[C@H](C)O1 [Doxorubicin]
[5]
  Leakage from liposomes: substantial leakage
[6]; in saline
  Concentration above which fluorescence is quenched: higher than 10^-6 M
[6]; in solution, concentration 1.7.10^-4, corrected for inner filter effect
  Quenching: 33%
[6]; in solution, concentration 3.4.10^-5, corrected for inner filter effect
  Quenching: 16%
[6]; in solution, concentration 6.9.10^-5, corrected for inner filter effect
  Quenching: 25%
[6]; inside the liposomes
  Quenching: ~100%
[7]
  Duration of slower phase of loading: about 24 hours
[8]
  Concentration above which dimers and aggregates form: higher than 1 um

## CCCCOc1cc(C(=O)NCCN(CC)CC)c2ccccc2n1 [Dibucaine]
[9]
  Loading: up to 52%
